Measured values published in ChEMBL document CHEMBL1153889, “Psammaplin A as a general activator of cell-based signaling assays via HDAC inhibition and studies on some bromotyrosine derivatives” (Bioorg Med Chem, 2009).
Active and inactive are the calls of the source. The calls are words filed in the database; no cut-off is given here.

Legend:
[1] = biological target: Protein Wnt-3a (Mus musculus) (UniProt P27467); test: Activation of mouse Wnt3a signaling expressed in HEK293 STF cells assessed as increase in transcriptional activity after 24 hrs by luciferase reporter gene-based lactate dehydrogenase assay; type: cell-based
Sequence of Protein Wnt-3a (Mus musculus) (P27467 whole entry): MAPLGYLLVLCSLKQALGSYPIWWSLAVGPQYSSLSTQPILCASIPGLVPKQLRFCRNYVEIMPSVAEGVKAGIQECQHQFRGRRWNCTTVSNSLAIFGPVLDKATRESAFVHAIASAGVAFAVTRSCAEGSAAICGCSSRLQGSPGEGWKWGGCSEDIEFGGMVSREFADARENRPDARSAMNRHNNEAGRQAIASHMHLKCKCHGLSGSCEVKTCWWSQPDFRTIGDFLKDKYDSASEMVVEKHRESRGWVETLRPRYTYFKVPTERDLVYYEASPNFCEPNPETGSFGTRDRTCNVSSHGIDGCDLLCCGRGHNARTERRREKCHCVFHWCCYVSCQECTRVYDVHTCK

HEK293 = test: Activation of Neuropeptide S receptor I107 mutant expressed in HEK293 cells assessed as increase in transcriptional activity after 24 hrs by luciferase reporter gene-based lactate dehydrogenase assay; type: cell-based

Activity [1]	Structure (SMILES)	Activity (HEK293)
Active	O=C(CCCCCCC(=O)Nc1ccccc1)NO	–
Active	CC(/C=C/C(=O)NO)=C\[C@@H](C)C(=O)c1ccc(N(C)C)cc1	–
Active	Nc1ccccc1NC(=O)c1ccc(CNC(=O)OCc2cccnc2)cc1	–
Active	O=C(NCCSSCCNC(=O)/C(Cc1ccc(O)c(Br)c1)=N/O)/C(Cc1ccc(O)c(Br)c1)=N/O	Active
